In patent publication US20240115654A1, “INTRAVENOUS ADMINISTRATION OF ENGINEERED ANTIMICROBIAL AMPHIPHILIC PEPTIDES” (priority 2021, published 2024):
Values joined by “and” are separate entries in the source; they are usually repeats but may differ in a detail not shown here. Equal entries are not always repeated. Where two headings read alike, the source gives them in different places. Peptide text beside a SMILES is read from it.

[1] = Cohort 1, 0.05 mg/kg IV infusion, Geometric Mean
[2] = Cohort 1, 0.05 mg/kg IV infusion, Max
[3] = Cohort 1, 0.05 mg/kg IV infusion, Mean
[4] = Cohort 1, 0.05 mg/kg IV infusion, Median
[5] = Cohort 1, 0.05 mg/kg IV infusion, Min
[6] = Cohort 1, 0.05 mg/kg IV infusion, cohort Geometric Mean
[7] = Cohort 1, 0.05 mg/kg IV infusion, cohort Mean
[8] = Cohort 1, 0.05 mg/kg IV infusion, cohort Median
[9] = Cohort 1, 0.05 mg/kg IV infusion, individual subject
[10] = Cohort 1, 0.05 mg/kg IV infusion, individual subjects
[11] = Cohort 3b and 4 section: over the 10-fold increase in dose
[12] = Cohort 3b and 4 section: over the […] increase in dose
[13] = Cohort 3b, […] IV infusion 2 hours, Max
[14] = Cohort 3b, […] IV infusion 2 hours, Min
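Note: phase 1 study in human subjects given one IV dose of the peptide, enrolled in sequential ascending-dose cohorts and randomized to peptide or placebo.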

CC(C)[C@H](NC(=O)[C@H](Cc1c[nH]c2ccccc12)NC(=O)[C@H](CCCNC(=N)N)NC(=O)[C@H](CCCNC(=N)N)NC(=O)[C@@H](NC(=O)[C@@H](NC(=O)[C@H](CCCNC(=N)N)NC(=O)[C@@H](NC(=O)[C@@H](NC(=O)[C@H](CCCNC(=N)N)NC(=O)[C@H](CCCNC(=N)N)NC(=O)[C@H](Cc1c[nH]c2ccccc12)NC(=O)[C@@H](NC(=O)[C@H](CCCNC(=N)N)NC(=O)[C@H](CCCNC(=N)N)NC(=O)[C@@H](NC(=O)[C@H](CCCNC(=N)N)NC(=O)[C@H](CCCNC(=N)N)NC(=O)[C@@H](NC(=O)[C@H](Cc1c[nH]c2ccccc12)NC(=O)[C@H](CCCNC(=N)N)NC(=O)[C@@H](N)CCCNC(=N)N)C(C)C)C(C)C)C(C)C)C(C)C)C(C)C)C(C)C)C(C)C)C(=O)N[C@@H](CCCNC(=N)N)C(=O)N[C@@H](CCCNC(=N)N)C(N)=O [SEQ ID NO: 1] (H-RRWVRRVRRVWRRVVRVVRRWVRR-NH2)
Plasma Concentration by Nominal Time from Start of Infusion, Mean (Cohort 1, 0.05 mg/kg IV 1-hr infusion, 49 h, cohort mean): 0.00 ng/mL | Plasma Concentration by Nominal Time from Start of Infusion (Cohort 1, 0.05 mg/kg IV 1 hr infusion, 0.0 h, individual subjects): 0.00 ng/mL | Plasma Concentration by Nominal Time from Start of Infusion (Cohort 1, 0.05 mg/kg IV 1 hr infusion, 9.0 h, individual subjects): 63.2 ng/mL | Plasma Concentration by Nominal Time from Start of Infusion (Cohort 1, 0.05 mg/kg IV 1 hr infusion, 13 h, individual subjects): 32.9 ng/mL | Plasma Concentration by Nominal Time from Start of Infusion (Cohort 1, 0.05 mg/kg IV 1 hr infusion, 21 h, individual subjects): 0.00 ng/mL | Plasma Concentration by Nominal Time from Start of Infusion (Cohort 1, 0.05 mg/kg IV 1 hr infusion, 25 h, individual subjects): 0.00 ng/mL | Plasma Concentration by Nominal Time from Start of Infusion (Cohort 1, 0.05 mg/kg IV 1 hr infusion, 37 h, individual subjects): 0.00 ng/mL | Plasma Concentration by Nominal Time from Start of Infusion, Mean (Cohort 1, 0.05 mg/kg IV 1 hr infusion, 49 h, cohort mean N 6): 0.00 ng/mL | Plasma Concentration by Nominal Time from Start of Infusion (Cohort 1, 0.05 mg/kg IV 1 hr infusion, 49 h, individual subjects): 0.00 ng/mL | AUCextrap [1]: 8.36% | CL/F [1]: 0.522 mL/min/kg | Tlast [1]: 24 h | λz [1]: 0.0946 h⁻¹ | AUC0-24 [2]: 1610 ng·h/mL | AUC(0-inf) [2]: 1820 ng·h/mL | AUC(0-t) [2]: 1720 ng·h/mL | AUCextrap [2]: 12.1% | CL/F [2]: 0.595 mL/min/kg | Cmax [2]: 341 ng/mL | Tlast [2]: 37 h | t1/2 [2]: 8.59 h | λz [2]: 0.105 h⁻¹ | AUCextrap [3]: 8.87% | CL/F [3]: 0.525 mL/min/kg | Tlast [3]: 25 h | λz [3]: 0.0950 h⁻¹ | AUCextrap [4]: 8.12% | Tlast [4]: 25 h | λz [4]: 0.0951 h⁻¹ | AUC0-24 [5]: 619 ng·h/mL | AUC(0-t) [5]: 515 ng·h/mL | AUCextrap [5]: 4.54% | CL/F [5]: 0.457 mL/min/kg | Cmax [5]: 170 ng/mL | Tlast [5]: 13 h | t1/2 [5]: 6.62 h | λz [5]: 0.0807 h⁻¹ | AUCextrap [6]: 8.36% | CL/F [6]: 0.522 mL/min/kg | Tlast [6]: 24 h | λz [6]: 0.0946 h⁻¹ | AUCextrap [7]: 8.87% | CL/F [7]: 0.525 mL/min/kg | Tlast [7]: 25 h | λz [7]: 0.0950 h⁻¹ | AUCextrap [8]: 8.12% | Tlast [8]: 25 h | λz [8]: 0.0951 h⁻¹ | AUC(0-inf) [9]: 1490 ng·h/mL and 1800 ng·h/mL and 1820 ng·h/mL | CL/F [9]: 0.595 mL/min/kg and 0.562 mL/min/kg | AUC(0-inf) [10]: 1490 ng·h/mL and 1800 ng·h/mL and 1820 ng·h/mL | Tlast [10]: 25 h (4×) and 13 h and 37 h | CL/F (Cohort 2, […] IV infusion, Max): 1.44 mL/min/kg | t1/2 (Cohort 2, […] IV infusion, Max): 15.5 h | CL/F (Cohort 2, […] IV infusion, Mean): 0.878 mL/min/kg | CL/F (Cohort 2, […] IV infusion, Median): 0.82 mL/min/kg | CL/F (Cohort 2, […] IV infusion, Min): 0.322 mL/min/kg | t1/2 (Cohort 2, […] IV infusion, Min): 7.51 h | CL/F (Cohort 2, […] IV infusion, cohort Mean): 0.878 mL/min/kg | CL/F (Cohort 2, […] IV infusion, cohort Median): 0.82 mL/min/kg | CL/F (Cohort 3, […] IV infusion, Geometric Mean): 0.91 mL/min/kg | CL/F (Cohort 3, […] IV infusion, Max): 4.3 mL/min/kg | t1/2 (Cohort 3, […] IV infusion, Max): 21.8 h | CL/F (Cohort 3, […] IV infusion, Mean): 1.4 mL/min/kg | CL/F (Cohort 3, […] IV infusion, Min): 0.295 mL/min/kg | t1/2 (Cohort 3, […] IV infusion, Min): 5.80 h | CL/F (Cohort 3, […] IV infusion, cohort Geometric Mean): 0.91 mL/min/kg | CL/F (Cohort 3, […] IV infusion, cohort Mean): 1.4 mL/min/kg | increase of AUC0-t [11]: 6.4 fold | increase of mean AUC0-24 [11]: 5.8 fold | increase of mean Cmax [11]: 7.1 fold | increase of AUC0-t [12]: 4.2 fold | increase of mean AUC0-24 [12]: 3.7 fold | increase of mean Cmax [12]: 3.7 fold | CL/F (Cohort 3b, […] IV infusion 2 hours, Geometric Mean): 0.748 mL/min/kg | CL/F [13]: 1.36 mL/min/kg | t1/2 [13]: 17.5 h | CL/F (Cohort 3b, […] IV infusion 2 hours, Mean): 0.795 mL/min/kg | CL/F (Cohort 3b, […] IV infusion 2 hours, Median): 0.76 mL/min/kg | CL/F [14]: 0.415 mL/min/kg | t1/2 [14]: 9.72 h | CL/F (Cohort 3b, […] IV, infusion 2 hours, cohort Geometric Mean): 0.748 mL/min/kg | CL/F (Cohort 3b, […] IV, infusion 2 hours, cohort Mean): 0.795 mL/min/kg | CL/F (Cohort 3b, […] IV, infusion 2 hours, cohort Median): 0.76 mL/min/kg | Plasma Concentration by Nominal Time from Start of Infusion, Mean (Cohort 4, 0.5 mg/kg IV 2-hr infusion, 0.0 h, cohort mean): 0.00 ng/mL | AUCextrap (Cohort 4, 0.5 mg/kg IV infusion 2 hours, Geometric Mean): 7.38% | AUC0-24 (Cohort 4, 0.5 mg/kg IV infusion 2 hours, Max): 10400 ng·h/mL
